According to patent US12473296B2, “Perk inhibiting compounds” (HiberCell, Inc., priority 2019, dated 2025):

How the values were obtained:
PERK = PERK (Homo sapiens (Human), UniProt Q9NZJ5); experiment: PERK cellular assay (TR-FRET, HEK293-EGFP-eIF2α cells, tunicamycin-induced ER stress); type: cell-based; conditions: tunicamycin 2 hours, read-out: Cellular IC50 (μM) (EIF2a)
Procedure: Stable cell lines were created in HEK293 cells using lentiviral particles harboring an expression vector for GFP-eIF2α. Cells were selected using puromycin and enriched using fluorescence activated cell sorting against GFP. HEK293-EGFP-eIF2α cells were plated at 5000 cells/well in 384-well assay plates and incubated overnight at 37° C., 5% CO2. Inhibitor compounds were added to the wells by Echo acoustic dispensing and incubated for 30 minutes at 37° C., 5% CO2 prior to induction of ER stress by addition of tunicamycin to […] for 2 hours. Cells were lysed and TR-FRET was measured in an EnVision plate reader (PerkinElmer). FRET ratio data was normalized to signal from lysates treated with DMSO vehicle control and plotted as percent inhibition against 10-point; 3-fold dilution series of inhibitors. IC50 values were calculated using 4-parameter logistical fitting in XLFit.

[1] = target: EIF2AK3 (PERK) catalytic domain (amino acids 536-1116) (Homo sapiens (Human), UniProt Q9NZJ5); experiment: PERK in vitro activity assay (isolated), TR-FRET kinase assay; conditions: isolated PERK enzyme, 1.5 μM ATP, GFP-eIF2a substrate; read-out: Biochemical IC50
Description: PERK In Vitro Activity Assay (Isolated):
In vitro Inhibition of PERK Enzyme Activity (isolated) Recombinant human EIF2AK2 (PKR) catalytic domain (amino acids 252-551), EIF2AK3 (PERK) catalytic domain (amino acids 536-1116), GFP-eIF2a substrate, and Terbium-labelled phospho-eIF2a antibody is obtained (Invitrogen, Carlsbad, CA).
Express and purify HIS-SUMO-GCN2 catalytic domain (amino acids 584-1019) from E. coli. Perform TR-FRET kinase assays in the absence or presence of inhibitors in a reaction buffer consisting of 50 mM HEPES, pH 7.5, 10 mM MgCb, 1.0 mM EGTA, and 0.01% Brij-35, and 100-200 nM GFP-eIF2a substrate. […] Add test compound, initiate the reaction by addition of enzyme, and incubate at room temperature for 45 minutes. Stop the reaction by addition of EDTA to a final concentration of 10 mM, add Terbium-labelled phospho-eIF2a antibody at a final concentration of 2 nM, and incubate for 90 minutes. Monitor the resulting fluorescence in an EnVison® Multilabel reader (PerkinElmer, Waltham, MA). Determine TR-FRET ratios and the resulting IC50 values using a 4-parameter nonlinear logistic equation as shown: Y=(A+((B−A)/(1+((C/x)[…])))) where, Y=% specific inhibition, A=Bottom of the curve, B=Top of the curve, C=absolute IC50 (concentration causing 50% inhibition), and D=hill slope.

Chain of PERK (Q9NZJ5 30-1116): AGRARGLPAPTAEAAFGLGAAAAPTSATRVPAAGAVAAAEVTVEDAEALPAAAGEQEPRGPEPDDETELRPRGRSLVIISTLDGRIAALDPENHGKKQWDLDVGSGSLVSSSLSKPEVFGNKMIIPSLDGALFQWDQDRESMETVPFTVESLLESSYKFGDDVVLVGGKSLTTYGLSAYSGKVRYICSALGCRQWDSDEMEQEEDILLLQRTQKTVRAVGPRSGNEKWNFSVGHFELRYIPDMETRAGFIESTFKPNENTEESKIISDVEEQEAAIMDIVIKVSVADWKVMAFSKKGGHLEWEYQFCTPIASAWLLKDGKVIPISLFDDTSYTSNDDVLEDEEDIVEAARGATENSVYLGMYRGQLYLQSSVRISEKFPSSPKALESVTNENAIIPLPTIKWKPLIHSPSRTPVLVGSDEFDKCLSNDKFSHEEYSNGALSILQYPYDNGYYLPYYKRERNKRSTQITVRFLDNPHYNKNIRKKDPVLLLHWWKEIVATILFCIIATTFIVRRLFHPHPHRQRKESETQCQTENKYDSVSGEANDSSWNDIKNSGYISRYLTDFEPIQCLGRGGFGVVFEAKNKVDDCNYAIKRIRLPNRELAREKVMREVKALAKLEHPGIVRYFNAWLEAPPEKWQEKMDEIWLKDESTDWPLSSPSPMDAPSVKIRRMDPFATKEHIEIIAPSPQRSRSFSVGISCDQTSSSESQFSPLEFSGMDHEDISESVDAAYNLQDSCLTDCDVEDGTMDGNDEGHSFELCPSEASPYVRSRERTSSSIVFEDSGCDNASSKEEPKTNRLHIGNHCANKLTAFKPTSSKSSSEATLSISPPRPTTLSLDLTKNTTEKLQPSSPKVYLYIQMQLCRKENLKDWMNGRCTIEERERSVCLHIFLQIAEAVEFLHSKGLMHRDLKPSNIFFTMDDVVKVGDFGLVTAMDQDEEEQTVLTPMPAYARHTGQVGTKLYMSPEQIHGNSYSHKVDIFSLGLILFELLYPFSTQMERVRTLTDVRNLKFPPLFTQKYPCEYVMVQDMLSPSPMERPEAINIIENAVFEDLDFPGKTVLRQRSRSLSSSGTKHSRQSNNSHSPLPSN
Chain of EIF2AK3 (PERK) catalytic domain (amino acids 536-1116) (Q9NZJ5 536-1116): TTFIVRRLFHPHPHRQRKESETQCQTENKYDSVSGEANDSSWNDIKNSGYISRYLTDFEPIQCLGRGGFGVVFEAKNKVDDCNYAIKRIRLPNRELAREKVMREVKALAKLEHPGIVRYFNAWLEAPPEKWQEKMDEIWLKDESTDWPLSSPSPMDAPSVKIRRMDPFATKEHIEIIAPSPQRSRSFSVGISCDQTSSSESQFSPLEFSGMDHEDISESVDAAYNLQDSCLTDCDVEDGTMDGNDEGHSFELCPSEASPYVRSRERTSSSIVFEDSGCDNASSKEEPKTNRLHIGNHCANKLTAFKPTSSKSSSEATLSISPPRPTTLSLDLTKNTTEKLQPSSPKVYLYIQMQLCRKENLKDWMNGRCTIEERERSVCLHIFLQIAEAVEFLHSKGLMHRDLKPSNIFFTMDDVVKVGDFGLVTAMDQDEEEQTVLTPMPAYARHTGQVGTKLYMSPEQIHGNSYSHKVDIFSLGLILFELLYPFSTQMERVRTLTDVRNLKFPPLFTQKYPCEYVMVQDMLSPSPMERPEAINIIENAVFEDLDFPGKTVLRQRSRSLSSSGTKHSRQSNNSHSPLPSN

Compound	IC50 (PERK) [µM]	IC50 [1] [nM]
Cc1cc(NC(=O)C(O)c2cc(F)cc(F)c2)ccc1-c1cnc(N)c(C(=O)NC2CCOCC2)n1 (single isomer, unassigned) [Example 144, 3-amino-6-(4-(2-(3,5-difluorophenyl)-2-hydroxyacetamido)-2-methylphenyl)-N-(tetrahydro-2H-pyran-4-yl)pyrazine-2-carboxamide]	0.501 to 1	
COCCNC(=O)c1nc(-c2ccc(NC(=O)C(O)c3cc(F)cc(F)c3)cc2C)cnc1N (single isomer, unassigned) [Example 148, 3-amino-6-(4-(2-(3,5-difluorophenyl)-2-hydroxyacetamido)-2-methylphenyl)-N-(2-methoxyethyl) pyrazine-2-carboxamide]	0.501 to 1	
Cc1cc(NC(=O)C(O)c2cc(F)cc(F)c2)ccc1-c1cnc(N)c(C(=O)NC2CCOCC2)c1 (centres unmarked) [Example 51, 2-amino-5-(4-(2-(3,5-difluorophenyl)-2-hydroxyacetamido)-2-methylphenyl)-N-(tetrahydro-2H-pyran-4-yl)nicotinamide]	0.501 to 1	
COCCNC(=O)c1cc(-c2ccc(NC(=O)C(O)c3cc(F)cc(F)c3)cc2C)cnc1N (centres unmarked) [Example 54, 2-amino-5-(4-(2-(3,5-difluorophenyl)-2-hydroxyacetamido)-2-methylphenyl)-N-(2-methoxyethyl) nicotinamide]	0.051 to 0.1	
Cc1cc(NC(=O)C(O)c2ccccc2C)ccc1-c1cnc(N)c(C(=O)NC(C)C)c1 (centres unmarked) [Example 64, 2-amino-5-(4-(2-hydroxy-2-(o-tolyl)acetamido)-2-methylphenyl)-N-isopropylnicotinamide]	0.101 to 0.25	
Cc1cc(NC(=O)C(O)c2ccccc2C)ccc1-c1cnc(N)c(C(=O)NC(C)C)c1 (centres unmarked) [Example 65, 2-amino-5-(4-(2-hydroxy-2-(o-tolyl)acetamido)-2-methylphenyl)-N-isopropylnicotinamide]	2 to 3	
Cc1cc(NC(=O)C(O)c2cccc(C(F)(F)F)c2)ccc1-c1cnc(N)c(C(=O)NC(C)C)c1 (centres unmarked) [Example 71, 2-amino-5-(4-(2-hydroxy-2-(3-(trifluoromethyl)phenyl)acetamido)-2-methylphenyl)-N-isopropylnicotinamide]	0.501 to 1	
Cc1ccccc1C(O)C(=O)Nc1ccc(-c2cnc(N)c(C(=O)NC(C)C)c2)c(Cl)c1 (centres unmarked) [Example 90, 2-amino-5-(2-chloro-4-(2-hydroxy-2-(o-tolyl)acetamido)phenyl)-N-isopropylnicotinamide]	0.051 to 0.1	
Cc1cccc(C(O)C(=O)Nc2ccc(-c3cnc(N)c(C(=O)NC(C)C)c3)c(Cl)c2)c1 (centres unmarked) [Example 92, 2-amino-5-(2-chloro-4-(2-hydroxy-2-(m-tolyl)acetamido)phenyl)-N-isopropylnicotinamide]	0.001 to 0.025	
Cc1cccc(C(O)C(=O)Nc2ccc(-c3cnc(N)c(C(=O)NC(C)C)c3)c(Cl)c2)c1 (centres unmarked) [Example 93, 2-amino-5-(2-chloro-4-(2-hydroxy-2-(m-tolyl)acetamido)phenyl)-N-isopropylnicotinamide]	0.101 to 0.25	
Cc1cc(NC(=O)C(O)c2cc(F)cc(F)c2)ccc1-c1cnc(N)c(C(=O)NC2COC2)n1 (centres unmarked) [Example 142, 3-amino-6-(4-(2-(3,5-difluorophenyl)-2-hydroxyacetamido)-2-methylphenyl)-N-(oxetan-3-yl)pyrazine-2-carboxamide]	1 to 2	
Cc1cccc(CC(=O)Nc2ccc(-c3cnc(N)c(C(=O)NC(C)C)c3)c(C)c2)c1 [Example 196, 2-amino-N-isopropyl-5-(2-methyl-4-(2-(m-tolyl)acetamido)phenyl)nicotinamide]	0.251 to 0.5	

Now from value to molecule:

IC50 (PERK) [µM]	IC50 [1] [nM]	Compound
0.051 to 0.1		CCc1cc(NC(=O)C(O)c2ccccc2C)ccc1-c1cnc(N)c(C(=O)NC(C)C)c1 (single isomer, unassigned) [Example 104, 2-amino-5-(2-ethyl-4-(2-hydroxy-2-(o-tolyl)acetamido)phenyl)-N-isopropylnicotinamide]
0.501 to 1		CCc1cc(NC(=O)C(O)c2ccccc2C)ccc1-c1cnc(N)c(C(=O)NC(C)C)c1 (single isomer, unassigned) [Example 105, 2-amino-5-(2-ethyl-4-(2-hydroxy-2-(o-tolyl)acetamido)phenyl)-N-isopropylnicotinamide]
0.051 to 0.1		Cc1cc(NC(=O)C(O)c2cc(F)cc(F)c2)ccc1-c1cnc(N)c(C(=O)NC2CCOCC2)n1 (single isomer, unassigned) [Example 145, 3-amino-6-(4-(2-(3,5-difluorophenyl)-2-hydroxyacetamido)-2-methylphenyl)-N-(tetrahydro-2H-pyran-4-yl)pyrazine-2-carboxamide]
0.026 to 0.05		COCCNC(=O)c1nc(-c2ccc(NC(=O)C(O)c3cc(F)cc(F)c3)cc2C)cnc1N (single isomer, unassigned) [Example 147, 3-amino-6-(4-(2-(3,5-difluorophenyl)-2-hydroxyacetamido)-2-methylphenyl)-N-(2-methoxyethyl) pyrazine-2-carboxamide]
0.051 to 0.1		Cc1cc(NC(=O)C(O)c2cc(F)cc(F)c2)ccc1-c1cnc(N)c(C(=O)NC2CCOCC2)c1 (centres unmarked) [Example 50, 2-amino-5-(4-(2-(3,5-difluorophenyl)-2-hydroxyacetamido)-2-methylphenyl)-N-(tetrahydro-2H-pyran-4-yl)nicotinamide]
1 to 2		COCCNC(=O)c1cc(-c2ccc(NC(=O)C(O)c3cc(F)cc(F)c3)cc2C)cnc1N (centres unmarked) [Example 55, 2-amino-5-(4-(2-(3,5-difluorophenyl)-2-hydroxyacetamido)-2-methylphenyl)-N-(2-methoxyethyl) nicotinamide]
0.001 to 0.025		Cc1cc(NC(=O)C(O)c2cccc(C(F)(F)F)c2)ccc1-c1cnc(N)c(C(=O)NC(C)C)c1 (centres unmarked) [Example 70, 2-amino-5-(4-(2-hydroxy-2-(3-(trifluoromethyl)phenyl)acetamido)-2-methylphenyl)-N-isopropylnicotinamide]
0.251 to 0.5		Cc1ccccc1C(O)C(=O)Nc1ccc(-c2cnc(N)c(C(=O)NC(C)C)c2)c(Cl)c1 (centres unmarked) [Example 91, 2-amino-5-(2-chloro-4-(2-hydroxy-2-(o-tolyl)acetamido)phenyl)-N-isopropylnicotinamide]
0.026 to 0.05		Cc1cc(NC(=O)C(O)c2cc(F)cc(F)c2)ccc1-c1cnc(N)c(C(=O)NC2CCC2)n1 (centres unmarked) [Example 140, 3-amino-N-cyclobutyl-6-(4-(2-(3,5-difluorophenyl)-2-hydroxyacetamido)-2-methylphenyl) pyrazine-2-carboxamide]
0.101 to 0.25		Cc1cc(NC(=O)C(O)c2cc(F)cc(F)c2)ccc1-c1cnc(N)c(C(=O)NC2CCC2)n1 (centres unmarked) [Example 141, 3-amino-N-cyclobutyl-6-(4-(2-(3,5-difluorophenyl)-2-hydroxyacetamido)-2-methylphenyl) pyrazine-2-carboxamide]
0.026 to 0.05		Cc1cc(NC(=O)C(O)c2cc(F)cc(F)c2)ccc1-c1cnc(N)c(C(=O)NC2COC2)n1 (centres unmarked) [Example 143, 3-amino-6-(4-(2-(3,5-difluorophenyl)-2-hydroxyacetamido)-2-methylphenyl)-N-(oxetan-3-yl)pyrazine-2-carboxamide]
0.101 to 0.25		CC(C)NC(=O)c1nc(-c2ccc(NC(=O)C(O)c3cc(F)cc(F)c3)cc2Cl)cnc1N (centres unmarked) [Example 162, 3-amino-6-(2-chloro-4-(2-(3,5-difluorophenyl)-2-hydroxyacetamido)phenyl)-N-isopropylpyrazine-2-carboxamide]
0.051 to 0.1		CC(C)NC(=O)c1nc(-c2ccc(NC(=O)C(O)c3cc(F)cc(F)c3)cc2Cl)cnc1N (centres unmarked) [Example 163, 3-amino-6-(2-chloro-4-(2-(3,5-difluorophenyl)-2-hydroxyacetamido)phenyl)-N-isopropylpyrazine-2-carboxamide]
0.026 to 0.05		Nc1ncc(-c2ccc(NC(=O)C(O)c3cc(F)cc(F)c3)cc2Cl)nc1C(=O)NC1CC1 (centres unmarked) [Example 166, 3-amino-6-(2-chloro-4-(2-(3,5-difluorophenyl)-2-hydroxyacetamido)phenyl)-N-cyclopropyl-pyrazine-2-carboxamide]
0.101 to 0.25		Nc1ncc(-c2ccc(NC(=O)C(O)c3cc(F)cc(F)c3)cc2Cl)nc1C(=O)NC1CC1 (centres unmarked) [Example 167]
0.251 to 0.5		Cc1ccccc1CC(=O)Nc1ccc(-c2cnc(N)c(C(=O)NC(C)C)c2)c(C)c1 [Example 195, 2-amino-N-isopropyl-5-(2-methyl-4-(2-(o-tolyl)acetamido)phenyl)nicotinamide]
	101 to 250	CCc1ccccc1CC(=O)Nc1ccc(-c2cnc(N)c(C(=O)NC(C)C)c2)c(C)c1 [Example 204, 2-amino-5-(4-(2-(2-ethylphenyl)acetamido)-2-methylphenyl)-N-isopropylnicotinamide]
